From patent publication US10126304B2, “Binding domain mapping” (George Mason Research Foundation, Inc., priority 2013, dated 2018)
Entries after “also recorded” stand apart in the source; their conditions may differ.

Columns and labels:
[1] = target: T1, IL1R1 molecule, soluble portion (Homo sapiens, UniProt P14778); assay: Trypsin sites blocked by small organic molecules on folded protein, mass spectrometry; format: biochemical
T1 construct: Linear representation of IL1R1 molecule, soluble portion; purchased Adipogen
T1 sequence (P14778 21-336): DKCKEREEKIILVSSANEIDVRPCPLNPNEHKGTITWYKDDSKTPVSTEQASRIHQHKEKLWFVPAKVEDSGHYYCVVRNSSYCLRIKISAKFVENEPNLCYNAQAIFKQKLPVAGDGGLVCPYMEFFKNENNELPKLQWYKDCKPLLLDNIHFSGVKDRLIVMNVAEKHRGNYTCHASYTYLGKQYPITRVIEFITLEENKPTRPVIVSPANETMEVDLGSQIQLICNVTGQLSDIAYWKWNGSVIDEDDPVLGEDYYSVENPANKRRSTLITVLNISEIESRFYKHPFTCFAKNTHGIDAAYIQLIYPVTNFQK
Excerpt: The binding of the small organic molecules is localized to multiple sites restricted to the surface of the protein, and excluded from internal domains of protein-protein interactions […]. […] Thus these molecules can be employed to reveal a) the inner contact domains of a single folded protein or b) the contact domains of two or more interacting proteins.
To identify functional protein-protein interaction domains, three equimolar concentrations of Interleukin ligand, its cognate receptor, and its accessory proteins were selected as a proof of concept protein complex. Interleukin 1β (IL1β, Gibco, 65 pmoles in 50 μl PBS), Interleukin 1 receptor type I (IL1RI, Adipogen, 65 pmoles in 50 μl PBS), and Interleukin 1 receptor accessory protein (IL1RAcP, Novoprotein, 65 pmoles in 50 μl PBS), were allowed to interact for one hour at room temperature under rotation. […]
As a control to identify solvent accessible surface areas, protein solutions were prepared in parallel at the same concentrations without adding paint molecules. […] Equal quantities of unbound, Interleukin 1β, IL1RI, or IL1RAcP were mixed individually with each of the four molecular paints (3 proteins×4 paints, n=12) in a 1:10 molar ratio (protein:molecular paint). […]
The solutions were immediately passed through a size sieving Sephadex column (PD MiniTrap G 25, GE Healthcare) and the flow through was collected, denatured with urea (final concentration 2M), reduced with 1 M dithiothreitol (Sigma, 15 minutes at 37° C.), alkylated with 0.5 M iodoacetamide (Sigma, 15 minutes, room temperature in the dark), and digested with trypsin (Promega) at 1:10 w/w protease/protein ratio for 2 hours at 37° C. Tryptic peptides were purified by Zip-Tip (Millipore) following manufacturer's instructions, and analyzed by reversed-phase liquid chromatography nanospray tandem mass spectrometry (LC-MS/MS) using an LTQ-Orbitrap mass spectrometer (ThermoFisher).

[2] = system: SAPK/JNK signaling downstream from IL1RI; assay: SAPK/JNK signaling in IL1β stimulated NCI/ADR-RES cells, western blotting; format: cell-based; conditions: IL1β 10 ng/mL; Arg286 peptide 3.3, 16.7 and 33 μM; scrambled peptide 33 μM
Experimental: NCI/ADR-RES cells (Division of Cancer Treatment and Diagnosis, National Cancer Institute) were cultured in Dulbecco's modified Eagle's medium (Gibco) with 10% fetal bovine serum (ATCC), and 2 mM L-glutamine (ATCC) at 37° C., 5% CO2, in a humidified environment. NCI/ADR-RES cells (2×10^6 cells/well) were plated into 6-well tissue culture dishes. The following day, cells were pre-treated for 30 minutes with soluble IL1RAcP (1 μg/mL) lacking the trans-membrane domain, Arg286 peptide ([…], 3.3, 16.7 and 33 μM) (SEQ ID NO:6) and a scrambled peptide obtained by randomly shuffling Arg286 sequence ([…], 33 μM) (SEQ ID NO:7). Cells were washed with Dulbecco's modified Eagle's medium with 10% fetal bovine serum, and 2 mM glutamine and were stimulated with IL1β at 10 ng/ml for 30 min. Following incubation, cells were washed in ice-cold PBS, incubated with 100 μl of cell lysis buffer (10% Bond Breaker TCEP solution (Thermo Scientific), 45% T-PER tissue protein extraction reagent (Thermo Scientific) and 45% Novex Tris Glycine SDS sample buffer 2× (Invitrogen)), scraped, transferred to Eppendorf tubes, and heated at 100° C. for 10 minutes. Cell lysates were analyzed by western blotting.
Proteins were separated by 1-D gel electrophoresis in 4-20% Tris-Glycine gel in the presence of Tris-Glycine SDS running buffer with the following run conditions: 125 V, 90 minutes. […]

[3] = target: T2, IL1β-IL1RI-IL1RAcP complex (Homo sapiens, UniProt P01584+P14778); assay: Pull-down of IL1β within the receptor complex by His-tagged IL1RAcP (immunoprecipitation); format: binding; conditions: Arg286 peptide 6.7, 3.3, 1.7, 0.8 and 0.4 μM
T2 construct: purchased Gibco (IL1β); Adipogen (IL1RI); Novoprotein (IL1RAcP)
T2 sequence (P01584 117-269, one chain of several): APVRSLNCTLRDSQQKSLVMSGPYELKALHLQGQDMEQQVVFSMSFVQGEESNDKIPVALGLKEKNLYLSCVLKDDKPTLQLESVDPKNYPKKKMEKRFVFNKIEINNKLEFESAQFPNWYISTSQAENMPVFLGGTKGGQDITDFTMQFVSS
Experimental: IL1β (0.44 μg/mL), IL1RI (2 μg/mL) and 6×His-tagged IL1RAcP (0.72 μg/mL) were incubated with Arg286 peptide (6.7, 3.3, 1.7, 0.8 and 0.4 μM) in 50 μl of PBS for one hour at room temperature under rotation. In parallel, […], IL1RI and 6×His-tagged IL1RAcP were allowed to interact without Arg286 peptide as a positive control. IL1β, and 6×His-tagged IL1RAcP were allowed to interact in absence of IL1RI as a negative control. After 1 hour, protein mixtures were incubated with magnetic beads decorated with anti-6His mouse monoclonal antibody obtained as follows. BcMag Protein G Magnetic Beads (50 μl, Bioclone) were washed 3 times with washing buffer (57.7 mM Na2HPO4, 42.3 mM NaH2PO4, pH 7.0) and incubated with anti-6×His mouse monoclonal antibody (1 μg, Abcam) for 30 minutes under rotation. Magnetic beads were separated from the supernatant with neodymium magnets, washed three times with washing buffer (57.7 mM Na2HPO4, 42.3 mM NaH2PO4, pH 7.0) and incubated with protein mixtures for one hour at room temperature under rotation. Magnetic beads were separated from the supernatant with neodymium magnets and washed three times with washing buffer (57.7 mM Na2HPO4, 42.3 mM NaH2PO4, pH 7.0). Immuno-precipitated proteins were eluted with 20 μl of 4× sample buffer (10 minutes, 70° C.). Immuno-precipitated proteins were analyzed by western blotting. […]

Row | Molecule | location of blocked trypsin sites on IL1R1 [1] | inhibition of SAPK/JNK signaling downstream from IL1RI [2] | inhibition of ligand pull-down / 3-protein complex formation [3]
1 | CN=C1C=CC(=C(c2ccc(N(C)C)cc2)c2ccc(N(C)C)cc2)C=C1.Cl [MV, N-(4-{bis[4-(dimethylamino)phenyl]methylene}-2,5-cyclohexadien-1-ylidene)methanaminium chloride] | lay on the surface of the folded native molecule |  | 
2 | O=S(=O)(O)c1cccc2cccc(Nc3ccccc3)c12 [ANSA, 8-Anilino-1-naphthalenesulfonic acid] | lay on the surface of the molecule |  | 
3 | HLRNISRISSITDTSETETEQ [scrambled peptide] |  | does not inhibit the signaling downstream from IL1RI | 
4 | CCN1/C(=C/C=C/c2sc3ccccc3[n+]2CC)Sc2ccccc21 [DECI, 3,3′-Diethylthiacarbocyanine iodide] | lay on the surface of the folded molecule |  | 
5 | TINESISHSRTEDETRTQILS [Arg286 peptide] |  | completely blocked IL1 ligand-stimulated signaling, in a dose dependent manner; also recorded: inhibited SAPK/JNK signaling downstream from IL1RI as effectively as IL1RAcP | completely blocked IL1RAcP 3-way binding to the receptor ligand complex; also recorded: inhibition of ligand pull-down
